Converted amounts (≈) assume the structure as drawn. “Also recorded” adds a separate entry of the source. Where two headings read alike, the source gives them in different places.
Columns and labels:
[1] = test system: MRSA; test: MIC, broth microdilution, clinical isolates: MRSA; format: cell-based, Staphylococcus aureus
Procedure: (§1) To assess the MICs for antibiotic susceptibility, Gram-positive bacteria isolated from human clinical specimens were obtained from several general hospitals in Seoul, Korea, during 2002–2018. Staphylococcus aureus Giorgio and Streptococcus pneumoniae ATCC49619 were used to test in vivo efficacies against […], in mice.
(§2) The MICs of the antimicrobial agents were determined by a twofold microdilution broth method, as described by the Clinical and Laboratory Standards Institute. Briefly, test organisms were grown on Mueller–Hinton agar (MHA, BD Difco, Sparks, MD, USA) plates, subcultured into cation-adjusted Mueller–Hinton broth (CAMHB, BD Difco, Sparks, MD, USA), and incubated for 18 h at 35 °C. For S. pneumoniae culture, 5% sheep blood (Hanil Comed, Seongnam, Korea) was added. The cultured bacteria were diluted using phosphate-buffered saline (PBS) to achieve a bacterial cell density of approximately 5 × 10^6 CFU/mL. All test organisms were loaded into 96-well plates containing serial dilutions of the antimicrobial agents to achieve a concentration of 5 × 10^4 CFU/well. The plates were incubated at 35 °C for 18–20 h and examined for bacterial growth.

[2] = test system: VRE 3; test: Time-kill assay, VRE 3; format: cell-based, vancomycin-resistant Enterococcus
Procedure: (§3) Time-kill analysis was performed by the NCCLS M26-A method. The test organisms (S. aureus Giorgio, S. pneumoniae ATCC49619, MRSA CCARM 3167, and VRE 3) incubated in CAMHB for 18 h at 35 °C were diluted to 10^5 CFU/mL with fresh CAMHB, and the diluted cultures were preincubated for 2 h. For S. pneumoniae culture, 5% sheep blood (Hanil Comed, Seongnam, Korea) was added. […] Culture aliquots (0.1 mL) were removed after 0, 2, 4, 6 and 24 h of incubation, and serial 10-fold dilutions were prepared in saline as needed. The numbers of viable cells were determined on drug-free MHA plates after 20 h of incubation. A compound was considered bactericidal if the original inoculum was reduced by 3 log CFU/mL (99.9%) at each concentration or was considered bacteriostatic if the inoculum was reduced by 0–3 log CFU/mL.

[3] = test system: Vancomycin-sensitive E. faecium; test: MIC, broth microdilution, clinical isolates: vancomycin-sensitive E. faecium; format: cell-based, Enterococcus faecium
Procedure: as §1, §2

[4] = test system: MRSA CCARM 3167; test: Time-kill assay, MRSA CCARM 3167; format: cell-based, Staphylococcus aureus
Procedure: as §3

[5] = test system: CNS (coagulase-negative staphylococci); test: MIC, broth microdilution, clinical isolates: CNS; format: cell-based
Procedure: as §1, §2

[6] = test system: MRSA CCARM 3167; test: MIC against MRSA CCARM 3167; format: cell-based; conditions: Staphylococcus aureus; read-out: MIC
Procedure: as §2

[7] = test system: S. pneumoniae; test: MIC, broth microdilution, clinical isolates: S. pneumoniae; format: cell-based, Streptococcus pneumoniae
Procedure: as §1, §2

[8] = test system: VRE 3; test: MIC against VRE 3; format: cell-based, vancomycin-resistant Enterococcus; conditions: Enterococcus, read-out: MIC
Procedure: as §2

[9] = test system: S. pneumoniae ATCC49619; test: Time-kill assay, S. pneumoniae ATCC49619; format: cell-based, Streptococcus pneumoniae
Procedure: as §3

[10] = test system: VRE; test: MIC, broth microdilution, clinical isolates: VRE; format: cell-based, vancomycin-resistant Enterococcus
Procedure: as §1, §2

[11] = test system: MSSA; test: MIC, broth microdilution, clinical isolates: MSSA; format: cell-based; conditions: Staphylococcus aureus, 26 clinical isolates
Procedure: as §1, §2

[12] = test system: S. aureus Giorgio; test: Time-kill assay, S. aureus Giorgio; format: cell-based, Staphylococcus aureus
Procedure: as §3

[13] = test system: S. pneumoniae ATCC49619; test: Neutropenic mouse respiratory tract infection model; format: in vivo, female ICR mice
Procedure: (§4) For the respiratory tract infection model, neutropenic mice were anesthetized and intranasally inoculated with a 50 μL suspension of S. pneumoniae ATCC49619 (4.4 × 10^8 CFU/mL). For the thigh infection model, the neutropenic mice were administered an intramuscular injection of a 100 μL suspension of S. aureus Giorgio (1 × 10^6 CFU/mL) into both thighs. For both models, four mice were included in each group. At 2 h after infection, two mice were sacrificed, and the infected thighs or lungs (n = 4) were excised to determine the initial bacterial levels. […] At 24 h after infection, the mice were sacrificed by cervical dislocation; their thighs or lungs were removed, homogenized, serially diluted with saline, and plated onto MHA to count the number of bacteria remaining. The number of viable bacterial cells (CFU) in the thighs or lungs of vehicle- and drug-treated mice was determined.

[14] = test system: S. pneumoniae ATCC49619; test: MIC against S. pneumoniae ATCC49619; format: cell-based; conditions: Streptococcus pneumoniae, ATCC 25922 / ATCC 49619, printed as S. pneumoniae ATCC 25922; read-out: MIC
Procedure: as §2

[15] = test system: Vancomycin-sensitive E. faecalis; test: MIC, broth microdilution, clinical isolates: vancomycin-sensitive E. faecalis; format: cell-based, Enterococcus faecalis
Procedure: as §1, §2

[16] = test system: S. aureus Giorgio; test: Neutropenic mouse thigh infection model; format: in vivo, female ICR mice
Procedure: as §4

[17] = test system: S. aureus Giorgio; test: MIC against S. aureus Giorgio; format: cell-based, Staphylococcus aureus
Procedure: as §2

[18] = second trial, s.c. 100 mg/kg bid

Compound: CO[C@@H](C(N)=O)[C@H](NC(=O)c1ccc(NC(=O)c2ccc([N+](=O)[O-])cc2)cc1)C(=O)Nc1ccc(C(=O)Nc2ccc(C(=O)Nc3ccc(C(=O)O)c(O)c3OC(C)C)c(O)c2OC(C)C)cc1 [Coralmycin A, coralmycin A]
- MIC90 ([1]; 42 clinical isolates): 1 µg/mL (≈ 1.07 µM)
- MIC50 ([1]; Staphylococcus aureus, MRSA, 42 clinical isolates, read-out: MIC50): 1 µg/mL (≈ 1.07 µM)
- MIC90 ([1]; Staphylococcus aureus, 42 MRSA isolates, read-out: MIC90): 1 µg/mL (≈ 1.07 µM)
- time-kill activity ([2]; 1× MIC): bactericidal (considered bactericidal if the original inoculum was reduced by 3 log CFU/mL (99.9%) at each concentration)
- time-kill activity ([2]; 2× and 4× MIC, 24 h): bactericidal (considered bactericidal if the original inoculum was reduced by 3 log CFU/mL (99.9%) at each concentration)
- MIC90 ([3]; 32 clinical isolates): 0.5 µg/mL (≈ 0.534 µM)
- MIC50 ([3]; Enterococcus faecium, 32 clinical isolates, read-out: MIC50): 0.25 µg/mL (≈ 0.267 µM)
- MIC90 ([3]; vancomycin-sensitive Enterococcus faecium, read-out: MIC90): 0.5 µg/mL (≈ 0.534 µM)
- time-kill activity ([4]; 1× MIC): bactericidal (considered bactericidal if the original inoculum was reduced by 3 log CFU/mL (99.9%) at each concentration)
- time-kill activity ([4]; 2× and 4× MIC, 24 h): bactericidal (considered bactericidal if the original inoculum was reduced by 3 log CFU/mL (99.9%) at each concentration)
- MIC90 ([5]; 31 clinical isolates): 1 µg/mL (≈ 1.07 µM)
- MIC50 ([5]; 31 clinical isolates, read-out: MIC50): 0.25 µg/mL (≈ 0.267 µM)
- MIC90 ([5]; 31 coagulase-negative staphylococci isolates, read-out: MIC90): 1 µg/mL (≈ 1.07 µM)
- MIC [6]: 0.01 µg/mL (≈ 0.0107 µM)
- MIC90 ([7]; 27 clinical isolates): 1 µg/mL (≈ 1.07 µM)
- MIC90 ([7]; Streptococcus pneumoniae, 27 S. pneumoniae isolates, read-out: MIC90): 1 µg/mL (≈ 1.07 µM)
- MIC50 ([7]; Streptococcus pneumoniae, 27 clinical isolates, read-out: MIC50): 0.25 µg/mL (≈ 0.267 µM)
- MIC [8]: 0.5 µg/mL (≈ 0.534 µM)
- time-kill activity ([9]; 0.5× MIC (Figure S4)): bacteriostatic (considered bacteriostatic if the inoculum was reduced by 0–3 log CFU/mL)
- time-kill activity ([9]; 1× MIC): bactericidal (considered bactericidal if the original inoculum was reduced by 3 log CFU/mL (99.9%) at each concentration)
- time-kill activity ([9]; 2× and 4× MIC, 24 h): bactericidal (considered bactericidal if the original inoculum was reduced by 3 log CFU/mL (99.9%) at each concentration)
- MIC90 ([10]; 46 clinical isolates): 1 µg/mL (≈ 1.07 µM)
- MIC50 ([10]; Enterococcus, VRE, 46 clinical isolates, read-out: MIC50): 0.5 µg/mL (≈ 0.534 µM)
- MIC90 ([10]; Enterococcus, 46 VRE isolates, read-out: MIC90): 1 µg/mL (≈ 1.07 µM)
- MIC50 ([11]; read-out: MIC50): 0.5 µg/mL (≈ 0.534 µM)
- MIC90 ([11]; read-out: MIC90): 1 µg/mL (≈ 1.07 µM)
- time-kill activity ([12]; 0.5× MIC (Figure S4)): bacteriostatic (considered bacteriostatic if the inoculum was reduced by 0–3 log CFU/mL)
- time-kill activity ([12]; 1× MIC): bactericidal (considered bactericidal if the original inoculum was reduced by 3 log CFU/mL (99.9%) at each concentration)
- time-kill activity ([12]; 2× and 4× MIC, 24 h): bactericidal (considered bactericidal if the original inoculum was reduced by 3 log CFU/mL (99.9%) at each concentration)
- in vivo effect (bacteriostatic or bactericidal) ([13]; 4 mg/kg bid s.c.): bacteriostatic effects; also recorded: static effect
- in vivo effect (bacteriostatic or bactericidal) ([13]; 20 mg/kg bid s.c.): bacteriostatic effects; also recorded: static effect
- in vivo effect (bacteriostatic or bactericidal) ([13]; 100 mg/kg bid s.c.): significant bactericidal effects
- reduction of bacterial burden in the lungs compared to the 24-h control group ([13]; first experiment, s.c. 4 mg/kg bid): 1.43 log10 CFU
- reduction of bacterial burden in the lungs compared to the 24-h control group ([13]; first experiment, s.c. 20 mg/kg bid): 1.81 log10 CFU
- antibacterial effect in respiratory tract infection model ([13]; first experiment, s.c. 4 and 20 mg/kg at 3 and 6 h after infection): significant antibacterial effects
- reduction of bacterial burden in the lungs compared to the 24-h control group ([13]; second trial, s.c. 4 mg/kg bid): 1.45 log10 CFU
- reduction of bacterial burden in the lungs compared to the 24-h control group ([13]; second trial, s.c. 20 mg/kg bid): 1.88 log10 CFU
- reduction of bacterial burden in the lungs compared to the 24-h control group [13, 18]: 3.02 log10 CFU
- reduction of the starting bacterial burden compared to the 2-h control group [13, 18]: 1.34 log10 CFU/lung
- MIC [14]: 10 µg/mL (≈ 10.7 µM)
- MIC90 ([15]; 32 clinical isolates): 2 µg/mL (≈ 2.14 µM)
- MIC50 ([15]; Enterococcus faecalis, 32 clinical isolates, read-out: MIC50): 1 µg/mL (≈ 1.07 µM)
- MIC90 ([15]; vancomycin-sensitive Enterococcus faecalis, read-out: MIC90): 2 µg/mL (≈ 2.14 µM)
- antibacterial effect in thigh infection model ([16]; 20 mg/kg bid): almost no antibacterial effect
- antibacterial effect in thigh infection model ([16]; s.c. 4 and 20 mg/kg at 3 and 6 h after infection): almost no antibacterial effect
- MIC [17]: 0.003 µg/mL (≈ 0.00321 µM)
- MIC ([17]; Staphylococcus aureus, read-out: MIC): 0.006 µg/mL (≈ 0.00641 µM)
